One may read the IC50 as the concentration at which inhibition is half-maximal.

Chain of ALK2 (Q04771 21-509): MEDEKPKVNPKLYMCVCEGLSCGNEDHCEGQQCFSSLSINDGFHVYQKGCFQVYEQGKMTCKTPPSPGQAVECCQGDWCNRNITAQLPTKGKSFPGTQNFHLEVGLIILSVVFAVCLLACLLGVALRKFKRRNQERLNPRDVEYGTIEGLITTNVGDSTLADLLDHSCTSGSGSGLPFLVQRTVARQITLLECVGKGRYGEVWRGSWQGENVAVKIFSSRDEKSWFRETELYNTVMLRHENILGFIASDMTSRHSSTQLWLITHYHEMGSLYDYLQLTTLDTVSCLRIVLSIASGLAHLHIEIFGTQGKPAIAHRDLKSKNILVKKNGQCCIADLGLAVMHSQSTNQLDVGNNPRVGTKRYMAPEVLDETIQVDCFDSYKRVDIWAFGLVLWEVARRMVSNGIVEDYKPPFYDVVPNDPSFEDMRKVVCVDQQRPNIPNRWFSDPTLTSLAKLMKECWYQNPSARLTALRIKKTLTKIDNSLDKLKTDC

The target in this assay is ALK2 (Homo sapiens (Human), UniProt Q04771). As to the kind of experiment: ALK2 inhibition, LanthaScreen Eu Kinase Binding Assay (ThermoFisher Scientific / Life Technologies). The settings on record: read-out: Measured Ki (IC50) Value for Compounds: IC50. The protocol:
Biochemical assays to measure the inhibitory effects of the compounds were performed by ThermoFisher Scientific (Life Technologies). ALK2 inhibition was tested using LanthaScreen™ Eu Kinase Binding Assay screening protocol.
A general note: In TR-FRET formats the signal depends on donor and acceptor labels being close together.
For `COc1cc(-n2cnc(Nc3nc4c(c(N5CCC[C@@H]5CO)n3)CN(C(=O)OC(C)(C)C)C4)c2)cc(OC)c1OC` [Compound 366b, (R)-tert-butyl 4-(2-(hydroxymethyl)pyrrolidin-1-yl)-2-(1-(3,4,5-trimethoxyphenyl)-1H-imidazol-4-ylamino)-5H-pyrrolo[3,4-d]pyrimidine-6(7H)-carboxylate], the IC50 was below 100 nM. As for `COc1cc(-n2cnc(Nc3nc4c(c(N5CCC[C@@H]5CO)n3)CNC4)c2)cc(OC)c1OC` [Compound 366c, (R)-(1-(2-(1-(3,4,5-trimethoxyphenyl)-1H-imidazol-4-ylamino)-6,7-dihydro-5H-pyrrolo[3,4-d]pyrimidin-4-yl)pyrrolidin-2-yl)methanol], the figure is below 100 nM; as for `OC[C@@H]1CCCN1c1cc(Cl)c2ccccc2n1` [Compound 367b, (S)-(1-(4-chloroquinolin-2-yl)pyrrolidin-2-yl)methanol], above 1000 nM; as for `COc1cc(-n2cnc(Nc3cc(N4CCC[C@H]4CO)c4ccccc4n3)c2)cc(OC)c1OC` [Compound 368a, (S)-(1-(2-(1-(3,4,5-trimethoxyphenyl)-1H-imidazol-4-ylamino)quinolin-4-yl)pyrrolidin-2-yl)methanol], 100 to 1000 nM. As for `COc1cc(-n2cnc(Nc3cc4ccccc4c(N4CCC[C@@H]4CO)n3)c2)cc(OC)c1OC` [Compound 369b, (R)-(1-(3-(1-(3,4,5-trimethoxyphenyl)-1H-imidazol-4-ylamino)isoquinolin-1-yl)pyrrolidin-2-yl)methanol], the figure is 100 to 1000 nM. Turning to `COc1cc(-c2ccc(Nc3nc(N4CCC[C@H]4CO)nc4ccccc34)nc2)cc(OC)c1OC` [Compound 370b, (S)-(1-(4-((5-(3,4,5-trimethoxyphenyl)pyridin-2-yl)amino)quinazolin-2-yl)pyrrolidin-2-yl)methanol], the IC50 is above 1000 nM. Next, `COc1cc(-c2ccc(Nc3nc(N4CCC[C@H]4C(N)=O)nc4ccccc34)nc2)cc(OC)c1OC` [Compound 371a, (S)-1-(4-((5-(3,4,5-trimethoxyphenyl)pyridin-2-yl)amino)quinazolin-2-yl)pyrrolidine-2-carboxamide]: above 1000 nM.

Turning to `COc1cc(-n2cnc(Nc3nc(N4CCC[C@@H]4CO)nc4cc(C#N)ccc34)c2)cc(OC)c1OC` [Compound 372a, (R)-2-(2-(hydroxymethyl)pyrrolidin-1-yl)-4-((1-(3,4,5-trimethoxyphenyl)-1H-imidazol-4-yl)amino)quinazoline-7-carbonitrile], the IC50 was below 100 nM.

As for `COc1cc(-n2cnc(Nc3nc(N4CCC[C@H]4C(N)=O)nc4c3c(C)nn4C)c2)cc(OC)c1OC` [Compound 373c, (S)-1-(1,3-dimethyl-4-((1-(3,4,5-trimethoxyphenyl)-1H-imidazol-4-yl)amino)-1H-pyrazolo[3,4-d]pyrimidin-6-yl)pyrrolidine-2-carboxamide], the IC50 was above 1000 nM.

Consider `COc1cc(-n2cnc(Nc3nc(N4CCC[C@H]4CO)nc4c3c(C)nn4C)c2)cc(OC)c1OC` [Compound 374a, (S)-(1-(1,3-dimethyl-4-((1-(3,4,5-trimethoxyphenyl)-1H-imidazol-4-yl)amino)-1H-pyrazolo[3,4-d]pyrimidin-6-yl)pyrrolidin-2-yl)methanol], for which the IC50 is 100 to 1000 nM. In the case of `COc1cc(-n2cnc(Nc3nc(N4CCC[C@H]4CO)nc4cc(N5CCN(C)CC5)ccc34)c2)cc(OC)c1OC` [Compound 375a, (S)-(1-(7-(4-methylpiperazin-1-yl)-4-((1-(3,4,5-trimethoxyphenyl)-1H-imidazol-4-yl)amino)quinazolin-2-yl)pyrrolidin-2-yl)methanol], the IC50 is below 100 nM. For `COc1cc(-n2cnc(Nc3nc(N4CCC[C@H]4CO)nc4cc(N5CCNCC5)ccc34)c2)cc(OC)c1OC` [Compound 376b, (S)-(1-(7-(piperazin-1-yl)-4-((1-(3,4,5-trimethoxyphenyl)-1H-imidazol-4-yl)amino)quinazolin-2-yl)pyrrolidin-2-yl)methanol], the IC50 was below 100 nM. Next, `COc1cc(-n2cnc(Nc3nc(N4CCC[C@H]4CO)c4c(C)nn(C)c4n3)c2)cc(OC)c1OC` [Compound 377b, (S)-(1-(1,3-dimethyl-6-((1-(3,4,5-trimethoxyphenyl)-1H-imidazol-4-yl)amino)-1H-pyrazolo[3,4-d]pyrimidin-4-yl)pyrrolidin-2-yl)methanol]: below 100 nM; `COc1cc(-n2cnc(Nc3nc(N4CCC[C@H]4CO)nc4cnccc34)c2)cc(OC)c1OC` [Compound 378c, (S)-(1-(4-((1-(3,4,5-trimethoxyphenyl)-1H-imidazol-4-yl)amino)pyrido[3,4-d]pyrimidin-2-yl)pyrrolidin-2-yl)methanol]: below 100 nM. Turning to `COc1cc(-n2cnc(Nc3nc(N4CCC[C@H]4C(N)=O)nc4cnccc34)c2)cc(OC)c1OC` [Compound 379a, (S)-1-(4-((1-(3,4,5-trimethoxyphenyl)-1H-imidazol-4-yl)amino)pyrido[3,4-d]pyrimidin-2-yl)pyrrolidine-2-carboxamide], the IC50 was below 100 nM. Take `COc1cc(-n2cnc(Nc3nc(N4CC5(CC5)C[C@H]4CO)c4cccn4n3)c2)cc(OC)c1OC` [Compound 380d, (S)-(5-(2-((1-(3,4,5-trimethoxyphenyl)-1H-imidazol-4-yl)amino)pyrrolo[2,1-f][1,2,4]triazin-4-yl)-5-azaspiro[2.4]heptan-6-yl)methanol]: the IC50 is below 100 nM.

For `COc1cc(-n2cnc(Nc3nc(N4CCC[C@H]4CO)c4ccncc4n3)c2)cc(OC)c1OC` [Compound 381b, (S)-(1-(2-((1-(3,4,5-trimethoxyphenyl)-1H-imidazol-4-yl)amino)pyrido[3,4-d]pyrimidin-4-yl)pyrrolidin-2-yl)methanol], the IC50 is below 100 nM. For the compound `COc1cc(-n2cnc(Nc3nc(N4CCC[C@@H]4CO)nc4cc(Br)ccc34)c2)cc(OC)c1OC` [Compound 382a, (R)-(1-(7-bromo-4-((1-(3,4,5-trimethoxyphenyl)-1H-imidazol-4-yl)amino)quinazolin-2-yl)pyrrolidin-2-yl)methanol], the IC50 was below 100 nM. Next, `COc1cc(-n2cnc(Nc3nc(N4CCC[C@@H]4CO)nc4cc(N5CCN(C)CC5)ccc34)c2)cc(OC)c1OC` [Compound 383a, (R)-(1-(7-(4-methylpiperazin-1-yl)-4-((1-(3,4,5-trimethoxyphenyl)-1H-imidazol-4-yl)amino)quinazolin-2-yl)pyrrolidin-2-yl)methanol]: below 100 nM; `COc1cc(-n2cnc(Nc3nc(N4CCC[C@H]4CO)nc4sc(CN5CCCC5)cc34)c2)cc(OC)c1OC` [Compound 384b, (S)-(1-(6-(pyrrolidin-1-ylmethyl)-4-((1-(3,4,5-trimethoxyphenyl)-1H-imidazol-4-yl)amino)thieno[2,3-d]pyrimidin-2-yl)pyrrolidin-2-yl)methanol]: below 100 nM. Turning to `COc1cc(-n2cnc(Nc3nc(N4CCC[C@H]4CO)c4ccc(C5=CCNCC5)cc4n3)c2)cc(OC)c1OC` [Compound 385c, (S)-(1-(7-(1,2,3,6-tetrahydropyridin-4-yl)-2-((1-(3,4,5-trimethoxyphenyl)-1H-imidazol-4-yl)amino)quinazolin-4-yl)pyrrolidin-2-yl)methanol], the IC50 is below 100 nM.

Regarding `COc1cc(-n2cnc(Nc3nc(N4CCC[C@H]4CO)nc4c3ncn4C)c2)cc(OC)c1OC` [Compound 386c, (S)-(1-(9-methyl-6-((1-(3,4,5-trimethoxyphenyl)-1H-imidazol-4-yl)amino)-9H-purin-2-yl)pyrrolidin-2-yl)methanol], the IC50 is below 100 nM. Next, `COc1cc(-n2cnc(Nc3nc(N4CCC[C@H]4C(N)=O)nc4c3ncn4C)c2)cc(OC)c1OC` [Compound 387a, (S)-1-(9-methyl-6-((1-(3,4,5-trimethoxyphenyl)-1H-imidazol-4-yl)amino)-9H-purin-2-yl)pyrrolidine-2-carboxamide]: below 100 nM; `COc1cc(-n2cnc(Nc3nc(N4CCC[C@H]4CO)c4ncn(C)c4n3)c2)cc(OC)c1OC` [Compound 388b, (S)-(1-(9-methyl-2-((1-(3,4,5-trimethoxyphenyl)-1H-imidazol-4-yl)amino)-9H-purin-6-yl)pyrrolidin-2-yl)methanol]: below 100 nM; `COc1cc(-n2cnc(Nc3nc(N4CCC[C@H]4CO)c4c(ncn4C)n3)c2)cc(OC)c1OC` [Compound 389c, (S)-(1-(7-methyl-2-((1-(3,4,5-trimethoxyphenyl)-1H-imidazol-4-yl)amino)-7H-purin-6-yl)pyrrolidin-2-yl)methanol]: below 100 nM.

As to `COc1cc(-n2cnc(Nc3nc(N4CCC[C@H]4C(N)=O)nc4ncn(C)c34)c2)cc(OC)c1OC` [Compound 390b, (S)-1-(7-methyl-6-((1-(3,4,5-trimethoxyphenyl)-1H-imidazol-4-yl)amino)-7H-purin-2-yl)pyrrolidine-2-carboxamide], the IC50 is above 1000 nM. Next, `COc1cc(-n2cnc(Nc3nc(N4CCC[C@H]4CO)nc4cc(C)ccc34)c2)cc(OC)c1OC` [Compound 391c, (S)-(1-(7-methyl-4-((1-(3,4,5-trimethoxyphenyl)-1H-imidazol-4-yl)amino)quinazolin-2-yl)pyrrolidin-2-yl)methanol]: below 100 nM; `COc1cc(-n2cnc(Nc3nc(N4CCC[C@H]4C(N)=O)nc4cc(C)ccc34)c2)cc(OC)c1OC` [Compound 392a, (S)-1-(7-methyl-4-((1-(3,4,5-trimethoxyphenyl)-1H-imidazol-4-yl)amino)quinazolin-2-yl)pyrrolidine-2-carboxamide]: below 100 nM; `COc1cc(-n2cnc(Nc3nc(N4CCC[C@H]4CO)c4ccc(C)cc4n3)c2)cc(OC)c1OC` [Compound 393b, (S)-(1-(7-methyl-2-((1-(3,4,5-trimethoxyphenyl)-1H-imidazol-4-yl)amino)quinazolin-4-yl)pyrrolidin-2-yl)methanol]: 100 to 1000 nM. As for `COc1cc(-n2cnc(Nc3nc4c(c(N5[C@H](CO)C[C@H]6C[C@H]65)n3)CCC4)c2)cc(OC)c1OC` [Compound 394b, ((1R,3S,5R)-2-(2-((1-(3,4,5-trimethoxyphenyl)-1H-imidazol-4-yl)amino)-6,7-dihydro-5H-cyclopenta[d]pyrimidin-4-yl)-2-azabicyclo[3.1.0]hexan-3-yl)methanol], the figure is below 100 nM.
